Reference: patent publication US9493461B2, “Tetracyclic heterocycle compounds and methods of use thereof for the treatment of hepatitis C” (priority 2013, dated 2016)

What was measured:
[1] = tested on: HCV replicon genotype 1a; experiment: HCV replicon assay, genotype 1a (cell ELISA for replicon-encoded NS3/4A); assay type: cell-based, hepatitis C virus (HCV); conditions: Hepatitis C virus, 96 h, read-out: 1a IC50 (nM), genotype 1a replicon cells, 96 hours incubation, NS3/4A ELISA readout, % of DMSO control
Method: Measurement of inhibition by compounds was performed using the HCV replicon system. Several different replicons encoding different HCV genotypes or mutations were used. In addition, potency measurements were made using different formats of the replicon assay, including different ways of measurements and different plating formats. See Jan M. Vrolijk et al., A replicons-based bioassay for the measurement of interferons in patients with chronic hepatitis C, 110 J. V[…] 201 (2003); Steven S. Carroll et al., Inhibition of Hepatitis C Virus RNA Replication by 2′-Modified Nucleoside Analogs, 278(14) J. BIOLOGICAL CHEMISTRY 11979 (2003). However, the underlying principles are common to all of these determinations, and are outlined below.
(§1) Stable neomycin phosphotransferase encoding replicons-harboring cell lines were used, so all cell lines were maintained under G418 selection prior to the assay. Potency was determined using a cell ELISA assay with an antibody to the replicons encoded NS3/4a protease. See Caterina Trozzi et al., In Vitro Selection and Characterization of Hepatitis C Virus Serine Protease Variants Resistant to an Active-Site Peptide Inhibitor, 77(6) J. Virol. 3669 (2003). To initiate an assay, replicon cells were plated in the presence of a dilution series of test compound in the absence of G418. Typically, the assays were performed in a 96-well plate formate for manual operation, or a 384-well plate format for automated assay. Replicon cells and compound were incubated for 96 hours. At the end of the assay, cells were washed free of media and compound, and the cells were then lysed. RNA was quantified indirectly through detection of replicon-encoded NS3/4A protein levels, through an ELISA-based assay with an antibody specific for NS3/4A. IC50 determinations were calculated as a percentage of a DMSO control by fitting the data to a four-parameter fit function and the data obtained is provided in the table below.
(§2) Data for selected compounds of the present invention was obtained for genotypes 1a and 1b using this method and is provided in the table below: […]

[2] = tested on: HCV replicon genotype 1b; experiment: HCV replicon assay, genotype 1b (cell ELISA for replicon-encoded NS3/4A); assay type: cell-based, hepatitis C virus (HCV); conditions: Hepatitis C virus, 96 h, read-out: 1b IC50 (nM), genotype 1b replicon cells, 96 hours incubation, NS3/4A ELISA readout, % of DMSO control
Method: The HCV NS5B inhibitory activity of the present compounds may be tested using assays known in the art. The HCV NS5B polymerase inhibitors described herein have activities in a genotype 1b replicon assay as described in the Examples. The assay is performed by incubating a replicon harboring cell-line in the presence of inhibitor for a set period of time and measuring the effect of the inhibitor on HCV replicon replication either directly by quantifying replicon RNA level, or indirectly by measuring enzymatic activity of a co-encoded reporter enzyme such as luciferase or β-lactamase. By performing a series of such measurements at different inhibitor concentrations, the effective inhibitory concentration of the inhibitor (EC50 or EC90) is determined See Jan M. Vrolijk et al., A replicons-based bioassay for the measurement of interferons in patients with chronic hepatitis C, 110 J. VIROLOGICAL METHODS 201 (2003). Such assays may also be run in an automated format for high through-put screening. See Paul Zuck et al., A cell-based β-lactamase reporter gene assay for the identification of inhibitors of hepatitis C virus replication, 334 ANALYTICAL BIOCHEMISTRY 344 (2004).
Measurement of inhibition by compounds was performed using the HCV replicon system. Several different replicons encoding different HCV genotypes or mutations were used. In addition, potency measurements were made using different formats of the replicon assay, including different ways of measurements and different plating formats. See Jan M. Vrolijk et al., A replicons-based bioassay for the measurement of interferons in patients with chronic hepatitis C, 110 J. VIROLOGICAL METHODS 201 (2003); Steven S. Carroll et al., Inhibition of Hepatitis C Virus RNA Replication by 2′-Modified Nucleoside Analogs, 278(14) J. BIOLOGICAL CHEMISTRY 11979 (2003). However, the underlying principles are common to all of these determinations, and are outlined below.
as §1, §2

CNC(=O)c1c(-c2ccc(F)cc2)oc2cc(N(C)S(C)(=O)=O)c(-c3ccc4c(n3)-c3cc5c(F)cccc5n3C(C)N4)cc12 (centres unmarked) [Example 61, 5-(11-fluoro-6-methyl-5,6-dihydropyrido[3′,2′:4,5]pyrimido[1,6-a]indol-2-yl)-2-(4-fluorophenyl)-N-methyl-6-(N-methylmethylsulfonamido)benzofuran-3-carboxamide] was tested, and the IC50 [1] was 2.6 nM and the IC50 [2] was 3.01 nM.
CNC(=O)c1c(-c2ccc(F)cc2)oc2cc(N(C)S(C)(=O)=O)c(-c3cnc4ncn5c6cccc(F)c6cc5c4c3)cc12 [Example 59, 2-(4-fluorophenyl)-5-(11-fluoropyrido[2′,3′:4,5]pyrimido[1,6-a]indol-2-yl)-N-methyl-6-(N-methylmethylsulfonamido)benzofuran-3-carboxamide] gave an IC50 [1] of 2 nM and an IC50 [2] of 2.16 nM.
For CNC(=O)c1c(-c2ccc(F)cc2)oc2cc(N(C)S(C)(=O)=O)c(-c3ccc4nc(C)n5c6cccc(F)c6cc5c4n3)cc12 [Example 60, 5-(11-fluoro-6-methylpyrido[3′,2′:4,5]pyrimido[1,6-a]indol-2-yl)-2-(4-fluorophenyl)-N-methyl-6-(N-methylmethylsulfonamido)benzofuran-3-carboxamide], the IC50 [1] was 2.78 nM and the IC50 [2] was 2.77 nM.
CNC(=O)c1c(-c2ccc(F)cc2)oc2cc(N(C)S(C)(=O)=O)c(-c3ccc4nc(CS(C)(=O)=O)n5c6cccc(F)c6cc5c4n3)cc12 [Example 23, 5-(11-fluoro-6-((methylsulfonyl)methyl)pyrido[3′,2′:4,5]pyrimido[1,6-a]indol-2-yl)-2-(4-fluorophenyl)-N-methyl-6-(N-methylmethylsulfonamido)benzofuran-3-carboxamide] was tested, and the IC50 [1] was 1.85 nM and the IC50 [2] was 2.98 nM.
CNC(=O)c1c(-n2cnc(C)n2)oc2cc(N(C)S(C)(=O)=O)c(-c3ccc4ncn5c6cccc(F)c6cc5c4n3)cc12 [Example 13] showed an IC50 [1] of 298 nM and an IC50 [2] of 99.5 nM.
CNC(=O)c1c(-c2ccc(F)cc2)oc2cc(N(C)S(C)(=O)=O)c(-c3cc4c(cn3)nc(CN3CCC(F)(F)C3)n3c5cccc(F)c5cc43)cc12 [Example 117] showed an IC50 [1] of 3.49 nM and an IC50 [2] of 5.01 nM.
For CNC(=O)c1c(-c2ccc(F)cc2)oc2cc(N(C)S(C)(=O)=O)c(-c3ccc4nc(CN5C[C@H](F)[C@@H](F)C5)n5c6cccc(F)c6cc5c4n3)cc12 [Example 101], the IC50 [1] was 3.13 nM and the IC50 [2] was 4.24 nM.
Work on CNC(=O)c1c(-c2ccc(F)cc2F)oc2cc(N(C)S(C)(=O)=O)c(-c3ccc4nc(CN5CC(C)(F)C5)n5c6cccc(F)c6cc5c4n3)cc12 [Example 140] yielded an IC50 [1] of 2.95 nM and an IC50 [2] of 4.31 nM.
Compound CNC(=O)c1c(-c2ccc(F)cc2)oc2cc(N(C)S(C)(=O)=O)c(-c3ccc4nc(CN5CCOCC5)n5c6cccc(C#N)c6cc5c4n3)cc12 [Example 134] has an IC50 [1] of 2.6 nM and an IC50 [2] of 2.02 nM.
CNC(=O)c1c2cc(-c3ccc4ncn5c6cccc(F)c6cc5c4n3)c(N(C)S(C)(=O)=O)cc2nn1-c1ccc(F)cc1 [Example 15, 2-(4-fluorophenyl)-5-(11-fluoropyrido[3′,2′:4,5]pyrimido[1,6-a]indol-2-yl)-N-methyl-6-(N-methylmethylsulfonamido)-2H-indazole-3-carboxamide] showed an IC50 [1] of 3.04 nM and an IC50 [2] of 5.27 nM.
CNC(=O)c1c(-c2ccc(F)cc2F)oc2cc(N(C)S(C)(=O)=O)c(-c3ccc4nc(CC5CC6(CNC(=O)C6)C5)n5c6cccc(F)c6cc5c4n3)cc12 (centres unmarked) [Example 137] was tested, and the IC50 [1] was 6.67 nM and the IC50 [2] was 5.04 nM.
CNC(=O)c1c(-c2ccc(F)cc2)oc2cc(N(C)S(C)(=O)=O)c(-c3ccc4nc(CN5CCC(F)(C#N)CC5)n5c6cccc(F)c6cc5c4n3)cc12 [Example 106] gave an IC50 [1] of 7.25 nM and an IC50 [2] of 8.2 nM.
With CNC(=O)c1c(-c2ccc(C(F)(F)F)nc2)oc2cc(N(C)S(C)(=O)=O)c(-c3cc4c(cn3)ncn3c5cccc(F)c5cc43)cc12 [Example 17, 5-(11-fluoropyrido[3′,4′:4,5]pyrimido[1,6-a]indol-2-yl)-N-methyl-6-(N-methylmethylsulfonamido)-2-(6-(trifluoromethyl)pyridin-3-yl)benzofuran-3-carboxamide] the IC50 [1] was 1.27 nM and the IC50 [2] was 1.78 nM.
Compound CNC(=O)c1c(-c2ccc(F)cc2)oc2cc(N(C)S(C)(=O)=O)c(-c3ccc4nc(CN5CCC(C)(O)CC5)n5c6cccc(F)c6cc5c4n3)cc12 [Example 93] has an IC50 [1] of 4.19 nM and an IC50 [2] of 7.78 nM.
In the case of CNC(=O)c1c(C(=O)N2CCC2(C)C)oc2cc(N(C)S(C)(=O)=O)c(-c3ccc4ncn5c6cccc(F)c6cc5c4n3)cc12 [Example 52], the IC50 [1] is reported as 260 nM and the IC50 [2] is reported as 120 nM.
In the case of CNC(=O)c1c(-c2ccc(F)cc2F)oc2cc(N(C)S(C)(=O)=O)c(-c3ccc4nc(CN5CC(S(C)(=O)=O)C5)n5c6cccc(F)c6cc5c4n3)cc12 [Example 149], the IC50 [1] is reported as 3.38 nM and the IC50 [2] is reported as 2.49 nM.
CNC(=O)c1c(-c2ccc(OC(F)F)nc2)oc2cc(N(C)S(C)(=O)=O)c(-c3cc4c(cn3)ncn3c5cccc(F)c5cc43)cc12 [Example 18] gave an IC50 [1] of 1.06 nM and an IC50 [2] of 1.86 nM.
With CNC(=O)c1c(-c2ccc(F)cc2)oc2cc(N(C)S(C)(=O)=O)c(-c3ccc4nc(CN5CC(O)(C(F)(F)F)C5)n5c6cccc(C#N)c6cc5c4n3)cc12 [Example 131] the IC50 [1] was 4.09 nM and the IC50 [2] was 4.23 nM.
CNC(=O)c1c(-c2ccc(F)cc2)oc2cc(N(C)S(C)(=O)=O)c(-c3ccc4nc(CN5CC(OC)C5)n5c6cccc(C#N)c6cc5c4n3)cc12 [Example 125] was tested, and the IC50 [1] was 2.32 nM and the IC50 [2] was 3.21 nM.
For CNC(=O)c1c(-c2ccc(F)cc2)oc2cc(N(C)S(C)(=O)=O)c(-c3ccc4nc(C(=O)OC)n5c6cccc(F)c6cc5c4n3)cc12 [Example 62, methyl 11-fluoro-2-(2-(4-fluorophenyl)-3-(methylcarbamoyl)-6-(N-methylmethylsulfonamido)benzofuran-5-yl)pyrido[3′,2′:4,5]pyrimido[1,6-a]indole-6-carboxylate], the IC50 [1] was 8.67 nM and the IC50 [2] was 12.2 nM.
CNC(=O)c1c(-c2ccc(F)cc2)oc2cc(N(C)S(C)(=O)=O)c(-c3ccc4nc(CN5CC(O)(C(F)(F)F)C5)n5c6cccc(F)c6cc5c4n3)cc12 [Example 94] showed an IC50 [1] of 4.33 nM and an IC50 [2] of 6.98 nM.
CNC(=O)c1c(-n2ccc(C)cc2=O)oc2cc(N(C)S(C)(=O)=O)c(-c3ccc4nc(CN5CC(F)C5)n5c6cccc(F)c6cc5c4n3)cc12 [Example 30] showed an IC50 [1] of 2.41 nM and an IC50 [2] of 2.32 nM.
For CNC(=O)c1c(-c2ccc(F)cc2F)oc2cc(N(C)S(C)(=O)=O)c(-c3ccc4nc(CN5CC[C@@H](F)C5)n5c6cccc(F)c6cc5c4n3)cc12 [Example 44, (R)-2-(2,4-difluorophenyl)-5-(11-fluoro-6-((3-fluoropyrrolidin-1-yl)methyl)pyrido[3′,2′:4,5]pyrimido[1,6-a]indol-2-yl)-N-methyl-6-(N-methylmethylsulfonamido)benzofuran-3-carboxamide], the IC50 [1] was 3.22 nM and the IC50 [2] was 3.45 nM.
For CNC(=O)c1c(-c2ccc(F)cc2)oc2cc(N(C)S(C)(=O)=O)c(-c3ccc4nc(CN5CC(O)C5)n5c6cccc(F)c6cc5c4n3)cc12 [Example 77], the IC50 [1] was 5.26 nM and the IC50 [2] was 5.61 nM.
CNC(=O)c1c(-c2ccc(F)cc2)oc2cc(N(C)S(C)(=O)=O)c(-c3ccc4nc(CN5CCOC(C(F)(F)F)C5)n5c6cccc(C#N)c6cc5c4n3)cc12 (centres unmarked) [Example 129] showed an IC50 [1] of 5.68 nM and an IC50 [2] of 6.95 nM.
